Source: PMC10786919, “Design-rules for stapled peptides with in vivo activity and their application to Mdm2/X antagonists” (Nature Communications, 2024)
Converted amounts (≈) assume the structure as drawn. Like-named read-outs stand apart in the source and are kept apart here. Positions of bridges follow the written chain, without caps; N, C: chain ends. Non-standard residues stand in square brackets, D forms with d. Residues, ends and D or L forms follow the SMILES beside them. R8 = C=CCCCCCC[C@@](C)(N)C(=O)O; Cha = N[C@@H](CC1CCCCC1)C(=O)O; R5 = C=CCCC[C@@](C)(N)C(=O)O; S5 = C=CCCC[C@](C)(N)C(=O)O; Ahx = NCCCCCC(=O)O

Assays:
[1] = tested on: p53 responsive β-lactamase reporter in HCT116 cells; experiment: cells; format: cell-based; conditions: 0% FBS 4Hr
Protocol: HCT116 cells were stably transfected with a p53 responsive β-lactamase reporter and expanded in McCoy’s 5 A Medium with 10% fetal bovine serum (FBS), Blasticidin, and Penicillin/Streptomycin and then transferred to 1.5 ml freezing vials and stored under liquid nitrogen in growth media containing 5% DMSO. […] The cells were then seeded into a 384-well plate at a density of 8000 cells per well. […] The final working concentration of DMSO was 0.5%. β-lactamase activity was detected using the ToxBLAzer Dual Screen (Invitrogen), as per the manufacturer’s instructions. Measurements were made using the Envision multiplate reader (Perkin–Elmer). […] Measurements were taken a minimum of three times (biological replicates) and values are reported as geometric means of the replicates.

[2] = Solubility assay (kinetic solubility, PBS pH 7); format: physicochemical; conditions: pH 7, aqueous buffer, kinetic from dmso stock, pH 7, PBS; read-out: Solubility
In short: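 Std: 10 mM stock → 100 µM in ACN/MeOH/DMSO (10:80:10). Sol. [µM] = (sample peak area / std peak area) × std conc.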

[3] = Experimental LogD (partition coefficient); conditions: not stated, Partition Coeff LogD
[4] = Lactate dehydrogenase (LDH) release assay; format: cell-based; conditions: LDH: Cytotoxicity assay: EC50
In short: (§1)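 Membrane damage measured as lactate dehydrogenase release (CytoTox-ONE kit) from p53-responsive β-lactamase reporter HCT116 cells plated at 8000 per well. Final DMSO 0.5%; geometric mean reported from a minimum of three biological replicates.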

[5] = tested on: HCT116 cells; experiment: Lactate dehydrogenase (LDH) release assay; format: cell-based
In short: as §1

[6] = in vitro; conditions: Nanoclick permeability assay EC50
Description: Further, there have been several literature reports[18]–[20] that highlight that the combination of hydrophobic character and positive charge can result in mast cell degranulation (MCD), a potentially fatal condition[18]–[20]. […] The NanoClick assay[22] determines permeability of azide-labeled peptides by combining intracellular copper-free click chemistry with NanoBRET technology. Specifically, if an azido-peptide achieves cytosolic exposure, it will react with a cyclooctyne-decorated Halotag construct that is fused with nanoluciferase. This reaction blocks the click labelling of a subsequently added azido-labeled acceptor dye, thus decreasing the NanoBRET signal in a manner that is target-binding agnostic.
This assay was previously described in detail. The assay was performed in 384-well white assay plates (PerkinElmer CUSG03874) using assay-ready frozen cells that had been transiently transfected with the NanoLuc-HaloTag vector that were thawed at plated in complete media at a density of 6000 cells/ well and incubated at 37 °C 5% CO2 overnight. DIBAC-CA was diluted in assay buffer (OptiMem without phenol red + 1% FBS) and added to cells at a final concentration of 3 μM and incubated at 37 °C 5% CO2 for 1 h. Cells were subsequently centrifuged using a BlueWasher instrument (Blue Cat Bio) to remove the DIBAC-CA solution and washed two times with HBSS (Ca2 + , Mg2 + ). A volume of 30 μL of assay buffer was added back to cell plates. Peptides were serially diluted 4-fold in DMSO with a Hamilton Star apparatus and then delivered into assay plates with an acoustic liquid handler Labcyte ECHO (300 nl, 1% DMSO in-well concentration). After incubating cells with peptide for the desired time (4 or 18 h), the HaloTag ligand, NanoBret618-azide, was added to each well at a final concentration of 10 μM. […] Following addition of NanoBRET Nano-Glo Substrate, donor emission (450 nm) and acceptor emission (610 nm) were measured using an Envision instrument (PerkinElmer).

[7] = read-out: p53 reporter assay EC50
[8] = read-out: p53 reporter assay: EC50

CC(=O)N[C@H](C(=O)N[C@@H](CO)C(=O)N[C@@H](Cc1ccccc1)C(=O)N[C@]1(C)CCCCCCC=CCCC[C@@](C)(C(N)=O)NC(=O)[C@H](CC2CCCCC2)NC(=O)[C@H](CC(C)C)NC(=O)[C@H](C)NC(=O)[C@H](Cc2c[nH]c3ccccc23)NC(=O)[C@H](Cc2ccc(O)cc2)NC(=O)[C@H](CCC(=O)O)NC1=O)[C@@H](C)O [MP-064] (Ac-TSF[R8]EYWAL[Cha][S5]-NH2; staple 4-11) gave an EC50 [1, 7] of 0.89 µM.
CC(=O)N[C@H](C(=O)N[C@@H](CO)C(=O)N[C@@H](Cc1ccccc1)C(=O)N[C@]1(C)CCCCCCC=CCCC[C@@](C)(C(=O)N[C@@H](CCC(=O)O)C(=O)N[C@@H](CC(N)=O)C(=O)N[C@H](Cc2ccccc2)C(N)=O)NC(=O)[C@H](CC(C)C)NC(=O)[C@H](CC(C)C)NC(=O)[C@H](C)NC(=O)[C@H](Cc2c[nH]c3ccccc23)NC(=O)[C@H](Cc2ccc(O)cc2)NC(=O)[C@H](CCC(=O)O)NC1=O)[C@@H](C)O [MP-091] gave an EC50 [1, 8] of 5.28 µM.
Compound CC(=O)N[C@@H](CCCCN)C(=O)N[C@@H](CCCCN)C(=O)NCCCCCC(=O)N[C@H](C(=O)N[C@@H](CO)C(=O)N[C@@H](Cc1ccccc1)C(=O)N[C@]1(C)CCCCCC/C=C\CCC[C@@](C)(C(=O)N[C@@H](CCC(=O)O)C(=O)N[C@@H](CC(N)=O)C(=O)N[C@@H](Cc2ccccc2)C(N)=O)NC(=O)[C@H](CC(C)C)NC(=O)[C@H](CC(C)C)NC(=O)[C@H](C)NC(=O)[C@H](Cc2c[nH]c3ccccc23)NC(=O)[C@H](Cc2ccc(O)cc2)NC(=O)[C@H](CCC(=O)O)NC1=O)[C@@H](C)O [MP-095] (Ac-KK[Ahx]TSF[R8]EYWALL[S5]ENF-NH2; staple (Z) 7-14) has an EC50 [1, 8] of 5.83 µM.
Work on CC(=O)N[C@@H](CCCCN)C(=O)N[C@@H](CCCCN)C(=O)NCCCCCC(=O)N[C@H](C(=O)N[C@@H](CO)C(=O)N[C@@H](C)C(=O)N[C@]1(C)CCCCCCC=CCCC[C@@](C)(C(=O)N[C@@H](CCC(=O)O)C(=O)N[C@@H](CC(N)=O)C(=O)N[C@@H](Cc2ccccc2)C(N)=O)NC(=O)[C@H](CC(C)C)NC(=O)[C@H](CC(C)C)NC(=O)[C@H](C)NC(=O)[C@H](Cc2c[nH]c3ccccc23)NC(=O)[C@H](Cc2ccc(O)cc2)NC(=O)[C@H](CCC(=O)O)NC1=O)[C@@H](C)O [MP-069] (Ac-KK[Ahx]TSA[R8]EYWALL[S5]ENF-NH2; staple 7-14) yielded an EC50 [1, 7] greater than 50 µM.
Work on CC(=O)N[C@H](C(=O)N[C@@H](CO)C(=O)N[C@@H](C)C(=O)N[C@]1(C)CCCCCCC=CCCC[C@@](C)(C(N)=O)NC(=O)[C@H](CC(C)C)NC(=O)[C@H](CC(C)C)NC(=O)[C@H](C)NC(=O)[C@H](Cc2c[nH]c3ccccc23)NC(=O)[C@H](Cc2ccc(O)cc2)NC(=O)[C@H](CCC(=O)O)NC1=O)[C@@H](C)O [MP-067] (Ac-TSA[R8]EYWALL[S5]-NH2; staple 4-11) yielded an EC50 [1, 7] greater than 50 µM.
For CC(=O)N[C@@H](CCCCN)C(=O)N[C@@H](CCCCN)C(=O)N[C@@H](CCCCN)C(=O)NCCCCCC(=O)N[C@H](C(=O)N[C@@H](CO)C(=O)N[C@@H](CC(C)C)C(=O)N[C@]1(C)CCCCCCC=CCCC[C@@](C)(C(=O)N[C@@H](CCC(=O)O)C(=O)N[C@@H](CC(N)=O)C(=O)N[C@@H](Cc2ccccc2)C(N)=O)NC(=O)[C@H](Cc2c[nH]c3ccccc23)NC(=O)[C@H](CC(C)C)NC(=O)[C@H](C)NC(=O)[C@H](Cc2ccccc2)NC(=O)[C@H](Cc2ccc(O)cc2)NC(=O)[C@H](CCC(=O)O)NC1=O)[C@@H](C)O [MP-075] (Ac-KKK[Ahx]TSL[R8]EYFALW[S5]ENF-NH2; staple 8-15), the EC50 [1, 8] was greater than 50 µM.
With CC(=O)N[C@H](C(=O)N[C@@H](CO)C(=O)N[C@@H](Cc1ccccc1)C(=O)N[C@]1(C)CCCC=CCCC[C@](C)(C(=O)N[C@@H](CC(C)C)C(=O)N[C@@H](CC(C)C)C(=O)N2CCC[C@H]2C(=O)N[C@@H](CCC(=O)O)C(=O)N[C@@H](CC(N)=O)C(=O)N[C@@H](Cc2ccccc2)C(N)=O)NC(=O)[C@H](Cc2c[nH]c3ccccc23)NC(=O)[C@H](Cc2ccc(O)cc2)NC(=O)[C@H](CCC(=O)O)NC1=O)[C@@H](C)O [MP-078] (Ac-TSF[R5]EYW[R5]LLPENF-NH2; staple 4-8) the EC50 [1, 8] was 37.7 µM.
Compound CC(=O)N[C@@H](CCCCN)C(=O)NCCCCCC(=O)N[C@H](C(=O)N[C@@H](CO)C(=O)N[C@@H](C)C(=O)N[C@]1(C)CCCCCCC=CCCC[C@@](C)(C(=O)N[C@@H](CCC(=O)O)C(=O)N[C@@H](CC(N)=O)C(=O)N[C@@H](Cc2ccccc2)C(N)=O)NC(=O)[C@H](CC(C)C)NC(=O)[C@H](CC(C)C)NC(=O)[C@H](C)NC(=O)[C@H](Cc2c[nH]c3ccccc23)NC(=O)[C@H](Cc2ccc(O)cc2)NC(=O)[C@H](CCC(=O)O)NC1=O)[C@@H](C)O [MP-068] (Ac-K[Ahx]TSA[R8]EYWALL[S5]ENF-NH2; staple 6-13) has an EC50 [1, 7] greater than 50 µM.
CC(=O)N[C@H](C(=O)N[C@@H](CO)C(=O)N[C@@H](Cc1ccccc1)C(=O)N[C@]1(C)CCCC=CCCC[C@](C)(C(=O)N[C@@H](CC(C)C)C(=O)N[C@@H](CC(C)C)C(=O)N[C@@H](CO)C(=O)N[C@@H](CCC(=O)O)C(=O)N[C@@H](CC(N)=O)C(N)=O)NC(=O)[C@H](Cc2c[nH]c3ccccc23)NC(=O)[C@H](Cc2ccc(O)cc2)NC(=O)[C@H](CCC(=O)O)NC1=O)[C@@H](C)O [MP-2087] (Ac-TSF[R5]EYW[R5]LLSEN-NH2; staple 4-8) showed an EC50 [1, 8] of 24.7 µM.
Compound CC(=O)N[C@H](C(=O)N[C@@H](CO)C(=O)N[C@@H](Cc1ccccc1)C(=O)N[C@]1(C)CCCCCCC=CCCC[C@@](C)(C(=O)N[C@@H](CCC(=O)O)C(=O)N[C@@H](CC(N)=O)C(=O)N[C@@H](C)C(N)=O)NC(=O)[C@H](CC(C)C)NC(=O)[C@H](CC(C)C)NC(=O)[C@H](C)NC(=O)[C@H](Cc2c[nH]c3ccccc23)NC(=O)[C@H](Cc2ccc(O)cc2)NC(=O)[C@H](CCC(=O)O)NC1=O)[C@@H](C)O [MP-088] has an EC50 [1, 8] of 22.3 µM.
For CC(=O)N[C@@H](CCC(=O)O)C(=O)N[C@@H](CCC(=O)O)C(=O)N[C@@H](CCC(=O)O)C(=O)N[C@@H](CCCCN=[N+]=[N-])C(=O)NCCC(=O)N[C@@H](CC(C)C)C(=O)N[C@H](C(=O)N[C@@H](Cc1ccccc1)C(=O)N[C@]1(C)CCCCCCC=CCCC[C@@](C)(C(=O)N[C@@H](CO)C(=O)N[C@@H](C)C(=O)N[C@@H](C)C(N)=O)NC(=O)[C@H](CC2CCC2)NC(=O)[C@H](CCC(N)=O)NC(=O)[C@H](C)NC(=O)[C@H](Cc2c[nH]c3ccccc23)NC(=O)[C@H](Cc2ccc(O)cc2)NC(=O)[C@H](CCC(=O)O)NC1=O)[C@@H](C)O [MP-617], the solubility kinetic [2] was 81.5 µM (≈ 192 µg/mL), the logD [3] was 2.09 and the EC50 [4] was greater than 50.6 µM. The “LDH: Cytotoxicity assay: % Effect” value [5] was -1.09% and the cell entry EC50 [6] was 0.842 µM.
CC(=O)N[C@H](C(=O)N[C@@H](CO)C(=O)N[C@@H](Cc1ccccc1)C(=O)N[C@]1(C)CCCCCCCCCCC[C@@](C)(C(N)=O)NC(=O)[C@H](CC(C)C)NC(=O)[C@H](CC(C)C)NC(=O)[C@H](C)NC(=O)[C@H](Cc2c[nH]c3ccccc23)NC(=O)[C@H](Cc2ccc(O)cc2)NC(=O)[C@H](CCC(=O)O)NC1=O)[C@@H](C)O [MP-089] gave an EC50 [1, 8] of 1.23 µM.
With CC(C)C[C@@H]1NC(=O)[C@H](C)NC(=O)[C@H](Cc2c[nH]c3ccccc23)NC(=O)[C@H](Cc2ccc(O)cc2)NC(=O)[C@H](CCC(=O)O)NC(=O)[C@](C)(NC(=O)[C@H](Cc2ccccc2)NC(=O)[C@H](CO)NC(=O)[C@@H](NC(=O)[C@H](CO)NC(=O)CNC(=O)[C@H](CO)NC(=O)[C@H](CCCCN=[N+]=[N-])NC(=O)[C@@H](N)CCC(=O)O)[C@@H](C)O)CCCCCCC=CCCC[C@@](C)(C(N)=O)NC(=O)[C@H](CC(C)C)NC1=O [MP-0180] the solubility kinetic [2] was 24 µM (≈ 46.4 µg/mL), the logD [3] was 2.21 and the EC50 [4] was greater than 50.6 µM. The “LDH: Cytotoxicity assay: % Effect” value [5] was 13.96% and the cell entry EC50 [6] was 0.495 µM.
